“Also recorded” adds a separate entry of the source. No end group written: not given here. Cy5Q = quencher
Columns and labels:
[1] = tested on: SK-OV-NTR cells (SK-OV-3 stably transfected with bacterial NTR genes); assay: Nitroreductase assay, delivery of nitroreductase reporter, transfected cells; type: cell-based, Human; conditions: 10 μM, 5 hour incubation
From the text: (§1) As disclosed in PCT/GB99/01746, the fluorescence properties of cyanine dyes may be modified by substitution of the dye with nitro, and/or dinitrobenzyl groups, which have the effect of reducing or abolishing the fluorescence from the molecule. An example of such a quenching or “dark” dye is Cy5Q (Amersham Pharmacia Biotech). In the presence of the enzyme, nitroreductase (NTR), a nitro-group substituent of Cy5Q may be converted to an amino-group, with the result that there is an increase in the fluorescence intensity of the dye. This may be used as the basis for an assay for the measurement of intracellular nitroreductase. In this example, Cy5Q is conjugated to a carrier peptide and is used as an indicator of nitroreductase (NTR) in whole, living cells.
(§2) The assay may be carried out using cells transfected with DNA encoding the gene for bacterial NTR, such that when the Cy5Q conjugate is introduced into such a transfected cell line, an increase in fluorescence is measured. […]
(§3) Cy5Q chemically linked to the carrier peptide Ac-Ala-Pro-Thr-Arg-Val-Leu-Pro-Pro-Leu-Val-Ala-Gly-Gly-Lys-amide was incubated with cells (30,000 cells/well) (1-5 hours, 5% CO2, 37° C., 95% humidity), cells washed (×3) with PBS and fluorescence measured from below, using a CytoFluor multi-well plate reader (Applied Biosystems), (activating at 610 nm, emission 670 nm). […]

[2] = tested on: parental SK-OV cells; assay: Nitroreductase assay, delivery of nitroreductase reporter, non-transfected cells; type: cell-based, Human; conditions: 10 μM, parental cell lines, FIG. 9
From the text: as §1, §2, §3

[3] = tested on: NIH 3T3; assay: Selective permeabilisation with digitonin (cytosolic vs organelle fraction fluorescence); type: cell-based, Mouse; conditions: 60 min incubation, 20 μM digitonin 3 min, FIG. 8
Method: Mouse fibroblasts (NIH 3T3) were cultured at 1×10^6 cells/ml in DMEM (see above) on 24-well tissue culture plates (Costar Inc.). Cells were incubated with Cy3- labelled carrier peptides (H2N-Ala-Pro-Thr-Arg-Val-Pro-Leu-Pro-Leu-Pro-Val-Gly-Gly-Lys-OH (SEQ ID No.4); H2N-Ala-Pro-Thr-Arg-Ala-Val-Leu-Pro-Leu-Ala-Val-Gly-Gly-Lys-OH (SEQ ID No.5); H2N-Ala-Pro-Thr-Arg-Val-Leu-Pro-Pro-Leu-Val-Ala-Gly-Gly-Lys-OH (SEQ ID No.6); H2N-Ala-Pro-Thr-Arg-Val-Leu-Leu-Pro-Leu-Leu-Val-Gly-Gly-Lys-OH (SEQ ID No.7) for 60 minutes (5% CO2, 37° C., 95% humidity). Cells were washed (×4) with PBS, before addition of 20 μM digitonin for 3 minutes. Cells were rapidly centrifuged (10,000×g, for 5 minutes) to separate into supernatant (cytosolic) and pellet (organelle) fractions. The fluorescence activity was then measured using a CytoFluor multi-well plate reader (activating at 530 nm, emission 590 nm). Unlabelled cells (cells without dye), unlabelled Cy3 (unlinked dye) (Amersham Pharmacia Biotech), and, untreated cells (unpermeabilised cells without digitonin), were used as controls. […] Cytosolic preparations were confirmed using an assay for cytoplasmic lactic dehydrogenase (LDH) in the presence of PNADH (Wroblewski & LaDue, Proc. Soc. Exp. Biol. Med. 1955, (90), 210-213.

[4] = tested on: NIH 3T3 cells; assay: Cellular uptake of Cy3 linked to carrier peptide (plate reader, fluorescence and confocal microscopy); type: cell-based, Mouse
Method: Mouse fibroblasts (NIH 3T3) or human ovary adenocarcinoma (SK-OV) cells were cultured in Dulbecco's modified Eagle's medium (DMEM) supplemented with 10% (v/v) foetal calf serum (FCS), 4 mM L-glutamine, 100 U/ml penicillin and 100 μg/ml streptomycin. NIH 3T3 cells were grown on 96-well tissue culture plates (Costar Inc.) or WillCo-dishes (glass-bottomed dishes, with 0.17 mm cover glass for inverted microscopes) (WillCo), before treatment with carrier peptide. Cells were incubated (60 min, 5% CO2, 37° C., 95% humidity) with Cy3 linked to carrier peptide (H2N-Ala-Pro-Thr-Arg-Val-Leu-Pro-Pro-Leu-Val-Ala-Gly-Gly-Lys-OH) (SEQ ID No.6)) (range 1-100 μM). After incubation, the culture supernatant was decanted and the cells were washed. Cy3 (unlinked dye) (Amersham Pharmacia Biotech) was used as a control. Cellular fluorescence was detected using a CytoFluor multi-well plate reader (Applied Biosystems, Foster City, Calif., USA), (activating at 530 nm, emission 590 nm) (FIG. 1); a Nikon-Diaphot 300 fluorescence microscope, (activating at 490 nm, emission at 520 nm); and a Zeiss Microsystems confocal laser scanning microscope (LSM4) (activating at 515 nm, emission at 565 nm) (FIGS. 2 (a) and (b)). Cells were further studied for intracellular dye localization by a twenty-step Z-position sectional scanning of the cell (0.5 μm/section) using a 40× oil immersion lens (FIG. 3). […]

[5] = tested on: NIH 3T3 cells; assay: Flow cytometry of cells incubated with Cy3 linked to carrier peptide; type: cell-based, Mouse; conditions: 1 μM, 60 min
Method: Mouse fibroblasts (NIH 3T3 cells) were cultured in DMEM (see above) on 24-well tissue culture plates (Costar Inc.). Cells were incubated (60 min, 5% CO2, 37° C., 95% humidity) with Cy3 (1 μM) linked to carrier peptide (H2N-Ala-Pro-Thr-Arg-Val-Leu-Pro-Pro-Leu-Val-Ala-Gly-Gly-Lys-OH (SEQ ID No.6)). After incubation, the culture supernatant was decanted and the cells washed. Cells were trypsinised (0.25% w/v, 5 min) and re-suspended in PBS, before analysis by flow cytometry (see below). Untreated cells and Cy3 only (unlinked dye) (Amersham Pharmacia Biotech) were used as controls.
All samples were analyzed on a FACSCalibur Flow Cytometry System (Becton Dickinson, San Jose, Calif., USA) with CellQuest software. The instrument is equipped with a 488 nm argon-ion laser and 5 detection parameters. There are 2 scatter detectors, known as forward scatter (FSC) and side scatter (SSC) which provide information about cellular size and internal complexity, respectively. In addition, there are three relative fluorescence intensity detectors. Cy3 labelling was monitored with the second fluorescence detector (FL2) fitted with a 585/42 nm filter. […]
Histogram markers were set so that only 2-3% of the recorded events were past the FL2 channel marker 30 for the dye only control.

[6] = tested on: NIH 3T3 cells; assay: Cellular delivery of nuclear localization sequence (confocal microscopy); type: cell-based, Mouse; conditions: overnight incubation, FIG. 10
Method: NIH 3T3 cells were cultured (see above) on WillCo-dishes (glass-bottomed dishes, with 0.17 mm cover glass for inverted microscopes) (WillCo), before treatment with carrier peptide linked to the nuclear localization sequence. Confluent NIH 3T3 cells were incubated (overnight, 5% CO2, 37° C., 95% humidity) in the presence of Cy3-[…]amide, before washing (×3) with PBS, and visualization using a Zeiss Microsystems confocal laser scanning microscope (LSM4) (activating at 515 nm, emission at 565 nm). Controls included Cy3 linked to carrier peptide (Cy3-Ala-Pro-Thr-Arg-Val-Leu-Pro-Pro-Leu-Val-Ala-Gly-Gly-Lys-OH), and unlabelled Cy3 (unlinked dye) (Amersham Pharmacia Biotech).

## Ac-Ala-Pro-Thr-Arg-Val-Leu-Pro-Pro-Leu-Val-Ala-Gly-Gly-Lys(Cy5Q)-amide (Ac-APTRVLPPLVAGGK(Cy5Q)-NH2) [carrier peptide linked to Cy5Q]
[1]; FIG. 9
  cellular uptake and substrate conversion (Cy5Q fluorescence): significant cellular internalization and substrate conversion
[1]; FIG. 9, listed as delivery peptide linked to Cy5Q
  cellular uptake and substrate conversion (Cy5Q fluorescence): significant cellular uptake and substrate conversion
[2]
  substrate conversion (Cy5Q fluorescence): Little conversion

## Cy3 linked to carrier peptide (SEQ ID No.5): Cy3 dye linked through NHS ester to carrier peptide H2N-Ala-Pro-Thr-Arg-Ala-Val-Leu-Pro-Leu-Ala-Val-Gly-Gly-Lys-OH (APTRAVLPLAVGGK-OH; also: Cy3 dye linked through NHS ester, site not given here)
[3]
  delivered dye in the cytosol (supernatant fraction after digitonin): significant amount of delivered agent in the cytosol; also recorded: significant amount of delivered dye into the cytosol

## Cy3-Ala-Pro-Thr-Arg-Val-Leu-Pro-Pro-Leu-Val-Ala-Gly-Gly-Lys-OH (Cy3-APTRVLPPLVAGGK-OH)
[4]; confocal, 0.5 μm/section, FIG. 3
  intracellular dye localization by twenty-step Z-position sectional scanning: dye staining in the central portion of the cell, and little staining on the periphery or cell membrane
[4]; range 1-100 μM, 60 min, CytoFluor plate reader, FIG. 1
  uptake of Cy3 into NIH 3T3 cells (cellular fluorescence): dose-dependent uptake
[3]
  delivered dye in the cytosol (supernatant fraction after digitonin): significant amount of delivered agent in the cytosol; also recorded: significant amount of delivered dye into the cytosol
[5]; FIG. 5
  uptake of Cy3 across the cell population (dot plots): homogeneous uptake
[5]; FL2 histogram, FIG. 6
  increase in fluorescence geometric mean between dye control and test cells: approximately 5 fold

## Cy3-Ser-Ser-Asp-Asp-Glu-Ala-Thr-Ala-Ser-Asp-Gln-His-Ser-Thr-Pro-Pro-Lys-Lys-Lys-Arg-Lys-Val-Glu-Asp-Pro-Lys-Ala-Pro-Thr-Arg-Val-Leu-Pro-Pro-Leu-Val-Ala-Gly-Gly-Lys-amide
[6]
  nuclear staining compared with the controls: more pronounced nuclear staining

## Cy3 linked to carrier peptide (SEQ ID No.4): Cy3 dye linked through NHS ester to carrier peptide H2N-Ala-Pro-Thr-Arg-Val-Pro-Leu-Pro-Leu-Pro-Val-Gly-Gly-Lys-OH (APTRVPLPLPVGGK-OH; also: Cy3 dye linked through NHS ester, site not given here)
[3]
  delivered dye in the cytosol (supernatant fraction after digitonin): significant amount of delivered agent in the cytosol; also recorded: significant amount of delivered dye into the cytosol

## Cy3 linked to carrier peptide (SEQ ID No.7): Cy3 dye linked through NHS ester to carrier peptide H2N-Ala-Pro-Thr-Arg-Val-Leu-Leu-Pro-Leu-Leu-Val-Gly-Gly-Lys-OH (APTRVLLPLLVGGK-OH; also: Cy3 dye linked through NHS ester, site not given here)
[3]
  delivered dye in the cytosol (supernatant fraction after digitonin): significant amount of delivered agent in the cytosol; also recorded: significant amount of delivered dye into the cytosol

Reference: patent US20030113819A1, “Carrier peptide and method for delivery of molecules into cells” (priority 2002, published 2003)
